Source: patent US20180015098A1 (LAM Therapeutics, Inc., priority 2015, published 2018)

Test system: panel of 456 kinases
Assay: Screen of apilimod against a comprehensive panel of 456 kinases (PIKfyve not included)
Format: binding
Details: screening concentration 1 μM
Description: Next, apilimod was screened against a comprehensive panel of kinases (PIKfyve not included).

Cc1cccc(/C=N/Nc2cc(N3CCOCC3)nc(OCCc3ccccn3)n2)c1 [apilimod]
binding to kinases of the panel: did not bind to any of the 456 kinases tested
